Assay results from US8648061B2, “Use of polyunsaturated fatty acids for the primary prevention of major cardiovascular events” (Pro Aparts Investimentos E. Consultoria LDA., priority 2001, dated 2014).

Tested on: non-anesthetized guinea pigs
Assay: preliminary tests: minimum lethal dose of ouabain
Format: in vivo, guinea pig
Conditions: intravenously administered over 3 minutes
Protocol: The experimental sudden death model was obtained by cardiac arrest induced by intravenous (i.v.) administration of a cardiotoxic agent (ouabain). In preliminary tests, various doses of ouabain were administered to non-anesthetized guinea pigs of both sexes of weight 300-380 g, in order to determine the minimum lethal dose for 100% of the animals within 15 minutes from i.v. injection (240 mg/kg, intravenously administered over 3 minutes).

C[C@@H]1O[C@@H](O[C@H]2C[C@@H](O)[C@]3(CO)[C@H]4[C@H](O)C[C@]5(C)[C@@H](C6=CC(=O)OC6)CC[C@]5(O)[C@@H]4CC[C@]3(O)C2)[C@H](O)[C@H](O)[C@H]1O [ouabain]
minimum lethal dose for 100% of the animals within 15 minutes from i.v. injection: 240 mg/kg
